SMILES strings stand for the structures.

Tested on in the first data set: not listed separately
Description: light fastness test (Example D1 series). The class given is physicochemical. The following applies: Table D1; xenon, 50° C., 70 kJ/m^2. Here is the method:
(§1) The light fastness test was conducted as follows.
(§2) Irradiation was conducted by means of a xenon fadeometer Ci35A (manufactured by Atlas) under conditions of a black panel temperature of 50° C. and an integrating irradiation energy of 70 kJ/m^2.
(§3) The percentage fading was determined from a density change around an initial density of 1.0 according to the following equation.
(§4) Percentage fading=(1-I/I0)×100 (%)
(§5) I=optical density after irradiation; and
(§6) I0 =optical density before irradiation.
(§7) .largecircle.: less than 20% in the percentage fading
Δ: 20% or more in the percentage fading
As to `CCN(CC)c1ccc(N=C2C=C(NC(C)=O)C(=O)C(Cl)=C2C)c(C)c1` [Comp. Ex. D1], the Light fastness entry was “.largecircle. (less than 20% in the percentage fading)”.

For the compound `CCN(CC)c1ccc(N=C2C=C(NC(=O)C3CCCCC3)C(=O)C(Cl)=C2C)c(C)c1` [Comp. Ex. D2], the Light fastness result is on record as “.largecircle. (less than 20% in the percentage fading)”.

Tested on in the next data set: not listed separately
In words: light fastness test (xenon fadeometer, percentage fading). The class given is physicochemical. The conditions noted are these: Table A2, dyes of Table A1, 50° C., 70 kJ/m^2. Here is the method:
as §1, §2, §3, §4, §5, §6, §7
X : 20% or more in the percentage fading
On to `CCN(CC)c1ccc(N=C2C=C(NC(=O)C3CC3)C(=O)C(Cl)=C2C)c(C)c1` [compound 1], for which the Light fastness entry is “.largecircle. (less than 20% in the percentage fading)”.

As to `CCN(CCO)c1ccc(N=C2C=C(NC(=O)C3CC3)C(=O)C(Cl)=C2C)c(C)c1` [compound 2], the Light fastness entry was “.largecircle. (less than 20% in the percentage fading)”.

Regarding `CCN(CC)c1ccc(N=C2C=C(NC(=O)C3CC3)C(=O)C=C2NC(C)=O)c(C)c1` [compound 3], the Light fastness result is “.largecircle. (less than 20% in the percentage fading)”.

For the compound `CCOc1cc(N(CC)CC)ccc1N=C1C=CC(=O)C(NC(=O)C2CC2)=C1` [compound 4], the Light fastness result was “.largecircle. (less than 20% in the percentage fading)”.

For the compound `CCOc1cc(N(CC)Cc2ccccc2)ccc1N=C1C=C(NC(=O)C2CC2)C(=O)C=C1NC(C)=O` [compound 5], the Light fastness result is recorded as “.largecircle. (less than 20% in the percentage fading)”.

On to `CCN(CCNS(C)(=O)=O)c1ccc(N=C2C=C(NC(=O)C3CC3)C(=O)C=C2NC(C)=O)c(C)c1` [compound 6], for which the Light fastness entry is recorded as “.largecircle. (less than 20% in the percentage fading)”.

`CCN(CCC#N)c1ccc(N=C2C=C(NC(=O)C3CC3)C(=O)C=C2NS(C)(=O)=O)c(NC(C)=O)c1` [compound 7]: the Light fastness result was “.largecircle. (less than 20% in the percentage fading)”.

As to `CCN(c1ccccc1)c1ccc(N=C2C=C(NC(=O)C3CC3)C(=O)C(Cl)=C2C)c(Cl)c1` [compound 8], the Light fastness result is listed as “.largecircle. (less than 20% in the percentage fading)”.

Take `CCN(CC)c1ccc(N=C2C=CC(=O)C(NC(=O)C3CC3)=C2)c(NC(C)=O)c1` [compound 9]: the Light fastness result is “.largecircle. (less than 20% in the percentage fading)”.

Turning to `CCN(CCO)c1ccc(N=C2C=C(NC(=O)C3CC3)C(=O)C=C2NC(C)=O)c(NS(C)(=O)=O)c1` [compound 10], the Light fastness entry is “.largecircle. (less than 20% in the percentage fading)”.

Regarding `CCN(CC)c1ccc(N=C2C=C(NC(=O)C3CC3)C(=O)C(Cl)=C2C)cc1` [compound 11], the Light fastness entry is given as “.largecircle. (less than 20% in the percentage fading)”.

Take `CCCCC1CC(C(=O)NC2=CC(=Nc3ccc(N(CC)CC)cc3C)C(C)=C(Cl)C2=O)C1` (stereo not shown) [compound 12]: the Light fastness result is listed as “.largecircle. (less than 20% in the percentage fading)”.

With `CCN(Cc1ccccc1)c1ccc(N=C2C=C(NC(=O)C3CCCC3)C(=O)C=C2NC(C)=O)c(C)c1` [compound 13], the Light fastness entry is given as “.largecircle. (less than 20% in the percentage fading)”.

On to `CCN(CC)c1ccc(N=C2C=C(NC(=O)C3CCCC3)C(=O)C(Cl)=C2C)c(NC(C)=O)c1` [compound 14], for which the Light fastness entry is “.largecircle. (less than 20% in the percentage fading)”.

Consider `CCN(CC)c1ccc(N=C2C=C(NC(=O)C3CCCC3)C(=O)C(Cl)=C2C)c(C)c1` [compound 15], for which the Light fastness entry is recorded as “.largecircle. (less than 20% in the percentage fading)”.

Take `CCN(CC)c1ccc(N=C2C=C(NC(=O)C3CCCC3)C(=O)C(Cl)=C2C)cc1` [compound 17]: the Light fastness entry was “.largecircle. (less than 20% in the percentage fading)”.

For the compound `CCN(CCCl)c1ccc(N=C2C=C(NC(=O)C3CCCC3)C(=O)C=C2NC(C)=O)c(NC(=O)NC)c1` [compound 18], the Light fastness result is given as “.largecircle. (less than 20% in the percentage fading)”.

With `CCN(CC)c1ccc(N=C2C=C(NC(=O)c3ccsc3)C(=O)C(Cl)=C2C)c(C)c1` [compound 19], the Light fastness result is “.largecircle. (less than 20% in the percentage fading)”.

`CCN(CC)c1ccc(N=C2C=C(NC(=O)c3ccsc3)C(=O)C(Cl)=C2C)c(NC(C)=O)c1` [compound 20]: the Light fastness result is listed as “.largecircle. (less than 20% in the percentage fading)”.

For `CCN(CC)c1ccc(N=C2C=C(NC(=O)c3ccsc3)C(=O)C=C2NC(C)=O)c(C)c1` [compound 21], the Light fastness result is on record as “.largecircle. (less than 20% in the percentage fading)”.

In the case of `CCN(CCOC)c1ccc(N=C2C=C(NC(=O)c3ccsc3)C(=O)C(Cl)=C2C)c(NC(C)=O)c1` [compound 22], the Light fastness entry was “.largecircle. (less than 20% in the percentage fading)”.

The data set is the same for the next values; noted with them: Table B2, dyes of Table B1, 50° C., 70 kJ/m^2.
`CCN(CC)c1ccc(N=C2C=C(NC(=O)C3=CCC=CC3)C(=O)C=C2NC(C)=O)c(C)c1` [Dye No. 20 in Table B1]: the Light fastness result is reported as “.largecircle. (less than 20% in the percentage fading)”.

Take `CCN(CCO)c1ccc(N=C2C=C(NC(=O)C3=CCC=CC3)C(=O)C(Cl)=C2C)c(C)c1` [Dye No. 21 in Table B1]: the Light fastness entry is recorded as “.largecircle. (less than 20% in the percentage fading)”.

On to `CCOc1cc(N(CC)CC)ccc1N=C1C=C(NC(=O)C2CC=CCC2)C(=O)C(Cl)=C1C` (stereo not shown) [Dye No. 22 in Table B1], for which the Light fastness entry is “.largecircle. (less than 20% in the percentage fading)”.

In the case of `CCN(CC)c1ccc(N=C2C=CC(=O)C(NC(=O)C3CC=CCC3)=C2)c(C)c1` (stereo not shown) [compound 23], the Light fastness result is “.largecircle. (less than 20% in the percentage fading)”.

As for `CCN(CCNS(C)(=O)=O)c1ccc(N=C2C=C(NC(=O)C3CC=CCC3)C(=O)C(Cl)=C2C)c(C)c1` (stereo not shown) [compound 24], the Light fastness entry is reported as “.largecircle. (less than 20% in the percentage fading)”.

Still in this data set, the particulars now being: Table C2, dyes of Table C1, 50° C., 70 kJ/m^2.
Take `CCN(CC)c1ccc(N=C2C=C(NC(=O)C3CC4C=C(C)C3C4)C(=O)C=C2NC(C)=O)c(C)c1` (stereo not shown) [Dye No. 20 in Table C1]: the Light fastness result is listed as “.largecircle. (less than 20% in the percentage fading)”.

On to `CCN(CC)c1ccc(N=C2C=C(NC(=O)C3CC4C=CC3O4)C(=O)C(Cl)=C2C)c(C)c1` (stereo not shown) [Dye No. 21 in Table C1], for which the Light fastness entry was “.largecircle. (less than 20% in the percentage fading)”.

As to `CCN(CC)c1ccc(N=C2C=C(NC(=O)C3CC4C=CC3S4)C(=O)C(Cl)=C2C)c(C)c1` (stereo not shown) [Dye No. 22 in Table C1], the Light fastness entry is “.largecircle. (less than 20% in the percentage fading)”.

With `CCN(CC)c1ccc(N=C2C=C(NC(=O)C3CC4C=CC3S4)C(=O)C=C2NC(C)=O)c(C)c1` (stereo not shown) [Dye No. 23 in Table C1], the Light fastness entry is on record as “.largecircle. (less than 20% in the percentage fading)”.

Regarding `CCN(CC)c1ccc(N=C2C=C(NC(=O)C3CC4C=CC3N4C)C(=O)C(Cl)=C2C)c(C)c1` (stereo not shown) [Dye No. 24 in Table C1], the Light fastness entry is “.largecircle. (less than 20% in the percentage fading)”.

Tested on in the next data set: not listed separately
In words: ink stability test (precipitation of the dye in the ink observed with the naked eye). The following applies: Table D1; room temperature (20°±3° C.), 48 hr. Format: physicochemical. Here is the method:
The following ink composition for the formation of a dye supporting layer was prepared and heated to 70° C. to completely dissolve the ink.
As to `CCN(CC)c1ccc(N=C2C=C(NC(C)=O)C(=O)C(Cl)=C2C)c(C)c1` [Comp. Ex. D1], the stability of ink entry is recorded as “large amount of crystal”.

For `CCN(CC)c1ccc(N=C2C=C(NC(=O)C3CCCCC3)C(=O)C(Cl)=C2C)c(C)c1` [Comp. Ex. D2], the stability of ink entry is “small amount of crystal”.

For a further data set, the system named is S. typhimurium TA100, TA98 and TA1538. Description: Ames test (mutagenic test). Format: cell-based. The following applies: positive if reversion colonies twice or more vs control. Here is the method:
Ames test was conducted as a mutagenic test.
Strains used were S. typhimurium TA100, TA98 and TA1538.
When the increase in the reversion colony was twice or more as compared with that in the case of the control, the mutagenicity was judged as positive, while when the increase in the reversion colony was less than twice as compared with that in the case of the control, the mutagenicity was judged as negative.
With `CCN(CC)c1ccc(N=C2C=C(NC(C)=O)C(=O)C(Cl)=C2C)c(C)c1` [Comp. Ex. D1], the mutagenicity result is on record as “positive”.

Consider `CCN(CC)c1ccc(N=C2C=C(NC(=O)C3CCCCC3)C(=O)C(Cl)=C2C)c(C)c1` [Comp. Ex. D2], for which the mutagenicity result is given as “negative”.

The values are drawn from patent US5260257A, “Thermal transfer sheet” (Dai Nippon Printing Co., Ltd., priority 1991, dated 1993).
